Laboratory results taken from patent US10004727B2, “Composition for preventing, alleviating or treating metabolic diseases, containing amodiaquine as active ingredient” (POSTECH ACADEMY—INDUSTRY FOUNDATION, priority 2015, dated 2018).

Assays:
[1] = molecular target: T1, PPAR-α-LBD (Homo sapiens, UniProt Q07869); assay: GAL4-PPAR-α-LBD luciferase reporter assay in BE(2)C cells; assay type: cell-based; conditions: various concentrations up to 50 μM, 20 hours, FIGS. 1C and 1D
T1 construct: expressed in transfected cells; host or cells: BE(2)C cells
T1 sequence (Q07869 239-466 limits assumed): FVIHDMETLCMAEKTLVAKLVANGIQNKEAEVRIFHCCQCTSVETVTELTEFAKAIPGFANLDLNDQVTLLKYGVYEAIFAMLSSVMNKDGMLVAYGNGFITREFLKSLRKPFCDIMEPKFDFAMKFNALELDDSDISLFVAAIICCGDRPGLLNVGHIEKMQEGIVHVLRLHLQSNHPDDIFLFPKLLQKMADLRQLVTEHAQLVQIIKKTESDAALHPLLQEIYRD
Description: (§1) To examine whether amodiaquine serves as a ligand of PPAR-γ or PPAR-α, three types of vectors were used.
(§2) The activation of luciferase expression was detected 6 hours after BE(2)C cells were transformed with a GAL4-PPAR-γ-LBD plasmid or GAL4-PPAR-α-LBD plasmid, the GAL4-luciferase vector and the β-galactosidase vector, and growing amodiaquine-treated cells for 20 hours in a 5% CO2 incubator.

[2] = molecular target: T2, human PPAR-γ-ligand binding domain (LBD) (Homo sapiens, UniProt P37231); assay: GAL4-PPAR-γ-LBD luciferase reporter assay in BE(2)C cells; assay type: cell-based; conditions: various concentrations up to 50 μM, 20 hours, FIGS. 1A and 1B
T2 construct: expressed in transfected cells; host or cells: BE(2)C cells
T2 sequence (P37231 238-503 limits assumed): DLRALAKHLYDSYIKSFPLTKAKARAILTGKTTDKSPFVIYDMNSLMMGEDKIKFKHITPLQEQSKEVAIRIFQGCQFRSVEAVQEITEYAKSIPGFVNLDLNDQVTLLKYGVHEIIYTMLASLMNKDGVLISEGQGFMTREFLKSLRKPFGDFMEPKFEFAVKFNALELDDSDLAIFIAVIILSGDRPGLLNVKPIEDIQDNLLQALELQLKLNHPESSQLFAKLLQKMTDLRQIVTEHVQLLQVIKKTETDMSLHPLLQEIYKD
Description: as §1, §2

[3] = system: high fat-induced obesity mice; assay: Intraperitoneal insulin tolerance test (IPITT) in high fat-induced obesity mice; assay type: in vivo, mouse; conditions: 0.5 U/kg insulin i.p.; for blood glucose concentration after 2 hours (IPITT): HFD with simultaneous substance, FIG. 7B; for time of lowest blood glucose level (IPITT): substance given after long-term HFD induction, FIG. 7C
Description: After 16-hour fasting, 0.5 U/kg of insulin was intraperitoneally administered to each animal in the controls and the experimental group, and a blood glucose concentration was measured every 30 minutes for 2 hours. For measurement of the blood glucose concentration, an IPITT was used.

[4] = system: KKAy mice; assay: Fasting blood glucose in KKAy mice; assay type: in vivo, mouse; conditions: 18 mg/kg daily oral for 6 weeks, control 132.4 mg/dl
Description: (§3) Following one-week acclimation, 5-week-old KKAy mice purchased from Saeronbio Inc. were divided into two groups of 5.
(§4) The first group was set as a negative control by administering PBS, and the second group was treated by daily oral administration of amodiaquine at 18 mg/kg for 6 weeks.
(§5) Fasting blood glucose was measured for 6 weeks from whole blood taken from the caudal vein of each mouse 1, 2, 5 and 6 weeks after 12-hour fasting. For blood glucose measurement, a blood glucose strip (Green Cross, Gyeonggi-do, Korea) was used. […] In addition, to identify the blood glucose regulation effect, 2 g/kg of glucose was intraperitoneally injected into the mice of the control and experimental group after 16-hour fasting, and the level of blood glucose was measured every 30 minutes for 2 hours. For measurement of the blood glucose concentration, an intraperitoneal glucose tolerance test (IPGTT) was used.

[5] = system: high fat-induced obesity mouse; assay: 4° C. cold test (thermal production) in high fat-induced obesity mice; assay type: in vivo; conditions: HFD mice, 14 weeks, amodiaquine 20 mg/kg; 4° C. for up to 6 hours; versus high fat obesity-induced mouse; FIG. 6
Description: To measure a thermal production capability with respect to mice fed a high fat diet for 14 weeks among the experimental animals designed in Example 5, a 4° C. cold test was performed (Spiegelman B. M. et al., Cell 92: 829-839, 1998). Hereinafter, the measurement method will be described in detail. A body temperature of mice in the high fat-induced obesity mouse groups was measured before being exposed to 4° C. and recorded as a test start temperature, and then the mice were exposed to 4° C. for up to 6 hours, followed by measuring a body temperature. The body temperature was measured using a rectal thermometer for a mouse (testo 925, Germany) A thermal production value indicated a temperature measured every hour.

[6] = system: C2C12 myotube cells; assay: Glucose uptake ([3H]2-DOG) evaluation test in C2C12 myotube cells; assay type: cell-based, mouse; conditions: C2C12 myotubes, 10 and 30 μM amodiaquine for 24 hours, compared with 50 μM rosiglitazone; FIG. 2
Description: Phosphorylation of insulin receptors occurs due to signal transduction by insulin in muscle, adipose or liver cells, and therefore when various proteins located downstream are phosphorylated, glucose uptake increases resulting in reduced blood glucose. A glucose uptake evaluation test was performed to identify whether amodiaquine is effective in diabetes. C2C12 myoblasts, which are muscle cells, were cultured in 10% […]-containing DMEM. When the cell density reached approximately 80 to 90%, the medium was replaced with fresh 2% horse serum-containing DMEM, and cell differentiation of the C2C12 myoblasts to myotubes was induced to make them completely differentiated, followed by carrying out an experiment. […] Washing was repeated three times every twenty minutes. Subsequently, 1 ml of KRP buffer was injected, a solution (0.2 mM, 0.2 μCi) prepared by dissolving unlabeled 2-DOG and [^3H]2-DOG (Amersham Pharmacia) in KRP buffer was added at 37° C. to allow treatment for exactly 10 minutes. The resulting cells were washed with 3 ml of cold phosphate buffered saline (PBS) to stop a glucose uptake reaction, further washed twice with PBS, air-dried for approximately 1 hour, and lyzed with 1 ml of 0.1% SDS by pipetting, and then 300 μl of the lysate was obtained to detect radioactivity using a liquid scintillation counter (Perkin Elmer, USA).

[7] = system: high fat-induced obesity mice; assay: Oral glucose tolerance test (OGTT) in high fat-induced obesity mice; assay type: in vivo, mouse; conditions: HFD mice with amodiaquine; 2 g/kg glucose oral after 16-hour fasting; HFD control 180.5 mg/dl; FIG. 7A
Description: After 16-hour fasting, 2 g/kg of glucose was orally administered to each animal in the controls and experimental group, and a blood glucose concentration was measured every 30 minutes for 2 hours. For measurement of the blood glucose concentration, an OGTT was used.

[8] = system: KKAy mice; assay: Intraperitoneal glucose tolerance test (IPGTT) in KKAy mice; assay type: in vivo, mouse; conditions: 18 mg/kg daily oral for 6 weeks, 2 g/kg glucose i.p. after 16-hour fasting, control 293.2 mg/dl
Description: as §3, §4, §5

[9] = system: KKAy mice; assay: Glycated hemoglobin (HbA1C) content in KKAy mice; assay type: in vivo, mouse; conditions: 18 mg/kg daily oral for 6 weeks, FIG. 4
Description: To detect a change in glycated hemoglobin content in mice by amodiaquine, after 1-week acclimation, 5-week-old KKAy mice were purchased from Saeronbio Inc. were divided into two groups of 5. Like in Example 3, the first group of mice were set as a control by administering PBS, and the second group was treated by daily oral administration of amodiaquine at 18 mg/kg for 6 weeks using a 1 ml syringe. To detect an effect of amodiaquine on reducing glycated hemoglobin content, whole blood was taken from the caudal vein of each mouse in the control and experimental group, injected into an easy A1c cartridge, and then assessed using an easy A1c analyzer (Asan Pharmaceutical Co., Ltd., Seoul, Korea). An independent group t-test was performed on the experimental group and the control to identify significance in the test results, and a statistically significant difference was shown (**p<0.005).

[10] = Body weight of high fat-induced obesity mice; assay type: in vivo, mouse; conditions: C57BL/6 mice, amodiaquine 20 mg/kg
Description: The mice were divided into groups of 7, freely fed water and diets in a cage, and then acclimated for 1 week before an experiment. […] [table] […] An average body weight was calculated by dividing the sum of weights of 7 mice per group by the number of mice.

[11] = system: liver of the high fat-induced obesity mouse; assay: Fatty liver histology (hematoxylin-eosin) in high fat-induced obesity mice; assay type: in vivo; conditions: HFD with amodiaquine for 14 weeks; FIG. 8
Description: Among the experimental animals designed in Example 5, mice in the high fat-induced obesity mouse group fed a high fat diet for 14 weeks were sacrificed by cervical spine dislocation, fixed on a dissection stand, and subjected to abdominal dissection with a scalpel to extract the liver. The extracted liver tissue was fixed in a 10% formalin solution to prevent contracted deformation. After the fixed tissue was washed with running water after 24 hours, general tissue dehydration, clearing and impregnation were performed using an automatic tissue processor (6460B, Sakura, Japan) for 14 hours, and manufacture of paraffin blocks and cooling were performed using an automated embedding device (Tissue-Tex, Japan). The manufactured paraffin blocks were continuously sliced to a thickness of 4 to 5 μm in a vertical direction of the tissue using a rotary microtome 2040 (Japan), and attached to slides after processing using a water bath and a slide warming table. The thin tissue section was stained with hematoxylin, an excessively-stained part was washed with running tap water, and then the resulting section was dipped in 1% HCl and a 70% A/C solution 3 to 5 times to stain the nuclei blue. […]

Row | SMILES | PPAR-α activity (luciferase expression) [1] | PPAR-γ activity (luciferase expression) [2] | blood glucose concentration after 2 hours (IPITT) [3] | time of lowest blood glucose level (IPITT) [3] | other results
1 | CCN(CC)CCCC(C)Nc1ccnc2cc(Cl)ccc12 (stereo not drawn) [chloroquine, 7-chloro-4-(4-diethylamino-1-methylbutylamino)quinoline] | did not show the PPAR-α activity | PPAR-γ activity was not shown |  |  | 
2 | Cc1cccc(Nc2cc(Cl)nc(SCC(=O)O)n2)c1C [WY-14,643] |  | PPAR-γ activity was not shown | maintained lower than the fasting blood glucose concentration |  | 
3 | CCN(CC)Cc1cc(Nc2ccnc3cc(Cl)ccc23)ccc1O [amodiaquine, 4-[(7-chloroquinolin-4-yl)amino]-2-[(diethylamino)methyl]phenol] | high concentration-dependent PPAR-α activity | higher concentration-dependent PPAR-γ activity | maintained lower than the fasting blood glucose concentration | 30 min | fasting blood glucose concentration [4]: 100.2 mg/dL; body temperature on exposure to 4° C. (thermal production) [5]: less decreased in body temperature; glucose uptake [6]: further increased than that in the rosiglitazone-treated group; blood glucose concentration 2 hours after glucose loading (OGTT) [7]: 139.1 mg/dL; blood glucose concentration 2 hours after glucose loading (IPGTT) [8]: 207 mg/dL; production of glycated hemoglobin relative to the control mice [9]: ~69%; body weight versus high fat-induced obesity mouse (prevention) ([10]; HFD with substance for 14 weeks, FIG. 5A): significantly lower than that of the high fat-induced obesity mouse; body weight versus high fat-induced obesity mouse (treatment) ([10]; substance for 7 weeks after 15-week HFD induction, rosiglitazone 50 mg/kg, FIG. 5C): significantly lower than that of the high fat-induced obesity mouse; liver appearance (fat accumulation, hematoxylin-eosin) [11]: almost the same appearance as that of a normal mouse
4 | CN(CCOc1ccc(CC2SC(=O)NC2=O)cc1)c1ccccn1 (stereo not drawn) [rosiglitazone] |  |  |  | 60 min | 
